Assay results reported in ChEMBL document CHEMBL1138634, “Topological modeling of lipophilicity, diuretic activity, and carbonic inhibition activity of benzene sulfonamides: a molecular connectivity approach” (Bioorg Med Chem Lett, 2004).

Legend:
[1] = Diuretic activity was determined; assay type: ADME, Urine
[2] = Inhibitory activity against carbonic anhydrase

CC(=O)c1ccc(S(N)(=O)=O)cc1
Log 1/C [1]: 0.39 | Log Ki [2]: -5.95

Cc1cccc(S(N)(=O)=O)c1
Log 1/C [1]: 0.17 | Log Ki [2]: -5.3

COc1ccc(S(N)(=O)=O)cc1
Log Ki [2]: -5.34

Nc1ccc(S(N)(=O)=O)cc1 [SULFANILAMIDE]
Log 1/C [1]: -0.3

NS(=O)(=O)c1ccccc1[N+](=O)[O-]
Log 1/C [1]: -0.3 | Log Ki [2]: -5.07

NS(=O)(=O)c1ccccc1Cl
Log 1/C [1]: -0.3 | Log Ki [2]: -5.52

NS(=O)(=O)c1ccc([N+](=O)[O-])c(C(F)(F)F)c1
Log 1/C [1]: 0.57 | Log Ki [2]: -6.85

NS(=O)(=O)c1ccccc1 [BENZENESULFONAMIDE]
Log 1/C [1]: 0.13 | Log Ki [2]: -5.21

NS(=O)(=O)c1ccc(Br)cc1
Log 1/C [1]: 0.26 | Log Ki [2]: -5.92

Cc1ccccc1S(N)(=O)=O
Log 1/C [1]: -0.3 | Log Ki [2]: -4.79

Cc1ccc(S(N)(=O)=O)cc1 [P-TOLUENESULFONAMIDE]
Log 1/C [1]: 0.18 | Log Ki [2]: -5.42

NS(=O)(=O)c1ccc(Cl)cc1 [P-CHLOROBENZENESULFONAMIDE]
Log Ki [2]: -5.72

NS(=O)(=O)c1cccc([N+](=O)[O-])c1
Log 1/C [1]: 0.67 | Log Ki [2]: -5.88

NS(=O)(=O)c1ccc(Cl)c(Cl)c1
Log 1/C [1]: 0.24 | Log Ki [2]: -6.39

CNc1ccc(S(N)(=O)=O)cc1
Log 1/C [1]: -0.03 | Log Ki [2]: -4.87

NS(=O)(=O)c1cccc(Cl)c1
Log 1/C [1]: 0.29 | Log Ki [2]: -5.63

NS(=O)(=O)c1ccc(Cl)c([N+](=O)[O-])c1
Log 1/C [1]: 0.32 | Log Ki [2]: -6.76

N#Cc1ccc(S(N)(=O)=O)cc1
Log 1/C [1]: 1 | Log Ki [2]: -5.95
